Results published in patent publication US8394969B2, “Cyclic benzimidazole derivatives useful as anti-diabetic agents” (Merck Sharp & Dohme Corp., priority 2008, dated 2013).
Where a name gives a salt, the structure may show the parent alone.

Each molecule was assayed against recombinant human AMPK complex 1 (containing α1β1γ1) (Homo sapiens, UniProt Q13131+Q9Y478) (assay: […] (in vitro AMPK activation assay)). Conditions: recombinant human AMPK complex 1 (α1β1γ1); basal activity subtracted; read-out: % Maximum AMP Activation of human AMPK Complex 1.
recombinant human AMPK complex 1 (containing α1β1γ1), sequence (Q13131 whole entry): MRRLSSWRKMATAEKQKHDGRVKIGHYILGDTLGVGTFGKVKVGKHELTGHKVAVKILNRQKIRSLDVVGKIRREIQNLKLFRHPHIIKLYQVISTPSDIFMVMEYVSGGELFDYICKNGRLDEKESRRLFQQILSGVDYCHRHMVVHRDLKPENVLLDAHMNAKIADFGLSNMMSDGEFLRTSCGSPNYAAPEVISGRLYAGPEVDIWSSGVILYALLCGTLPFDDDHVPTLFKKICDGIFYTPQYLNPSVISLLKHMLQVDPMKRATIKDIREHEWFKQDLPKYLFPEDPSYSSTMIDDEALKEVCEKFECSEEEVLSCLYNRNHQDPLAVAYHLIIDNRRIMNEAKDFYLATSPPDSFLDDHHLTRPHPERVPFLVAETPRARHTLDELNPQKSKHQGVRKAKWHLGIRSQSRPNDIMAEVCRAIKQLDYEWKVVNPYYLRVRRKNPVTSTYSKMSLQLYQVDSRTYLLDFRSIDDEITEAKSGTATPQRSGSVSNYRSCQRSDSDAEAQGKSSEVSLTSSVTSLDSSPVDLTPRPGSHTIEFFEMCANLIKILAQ
recombinant human AMPK complex 1 (containing α1β1γ1), sequence (Q9Y478 whole entry): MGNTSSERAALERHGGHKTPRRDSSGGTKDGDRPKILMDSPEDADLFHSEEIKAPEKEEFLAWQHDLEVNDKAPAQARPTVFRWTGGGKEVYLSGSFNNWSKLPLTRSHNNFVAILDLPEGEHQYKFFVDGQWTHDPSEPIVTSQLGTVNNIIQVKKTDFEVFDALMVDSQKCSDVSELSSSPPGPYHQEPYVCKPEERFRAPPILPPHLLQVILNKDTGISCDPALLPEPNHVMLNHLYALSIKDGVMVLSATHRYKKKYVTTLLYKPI
recombinant human AMPK complex 1 (containing α1β1γ1), sequence (P54619 whole entry partner): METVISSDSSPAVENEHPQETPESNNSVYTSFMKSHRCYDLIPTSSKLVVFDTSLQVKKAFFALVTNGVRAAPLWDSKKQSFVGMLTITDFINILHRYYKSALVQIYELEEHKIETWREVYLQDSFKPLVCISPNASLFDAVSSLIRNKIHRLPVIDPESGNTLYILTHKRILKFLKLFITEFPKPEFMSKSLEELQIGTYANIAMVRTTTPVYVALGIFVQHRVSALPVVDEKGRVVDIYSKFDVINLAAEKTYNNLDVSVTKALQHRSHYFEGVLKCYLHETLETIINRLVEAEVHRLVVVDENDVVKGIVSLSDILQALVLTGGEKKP
Type: biochemical

SMILES	Emax [%]
Cc1ccc(Oc2nc3cc(-c4ccc5cnccc5c4)c(Cl)cc3[nH]2)cc1C(=O)O [Example 280, 5-(6-Chloro-5-isoquinolin-6-yl-1H-benzoimidazol-2-yloxy)-2-methyl-benzoic acid]	> 80
Cc1cc(Oc2nc3cc(-c4ccc(-c5ccccc5)cc4)c(Cl)cc3[nH]2)cc(O)c1C(=O)O [Example 27, 4-(5-Biphenyl-4-yl-6-chloro-1H-benzoimidazol-2-yloxy)-2-hydroxy-6-mehtyl-benzoic acid]	> 80
COC(=O)Cn1c(Oc2ccc(C)c(C(=O)OC)c2)nc2cc(-c3ccc(-c4ccccc4)cc3)c(Cl)cc21 [Example 223, 5-(5-Biphenyl-4-yl-6-chloro-1-methoxycarbonyl-methyl-1H-benzoimidazol-2-yloxy)-2-methyl-benzoic acid methyl ester]	> 80
COC(=O)c1cc(Oc2nc3cc(C#Cc4ccccc4OC)c(Cl)cc3[nH]2)ccc1C [Example 107, 5-[6-Chloro-5-(2-methoxy-phenylethynyl)-1H-benzoimidazol-2-yloxy]-2-methyl-ester]	> 80
Cc1ccc(Oc2nc3cc(-c4ccc5c(c4)c(C#N)cn5C)c(Cl)cc3[nH]2)cc1C(=O)O [Example 349, 2-(3-carboxy-4-methylphenoxy)-6-chloro-5-(3-cyano-1-methyl-1H-indol-5-yl)-1H-3,1-benzimidazol-3-ium trifluoroacetate]	> 80
O=C(O)c1ccc(Oc2nc3cc(-c4ccc(-c5ccccc5)cc4)c(Cl)cc3[nH]2)cc1 [Example 38, 4-(5-Biphenyl-4-yl-6-chloro-1H-benzoimidazol-2-yloxy)-benzoic acid]	> 80
Cc1ccc(Oc2nc3cc(C#Cc4ccc(-c5nn[nH]n5)cc4)c(Cl)cc3[nH]2)cc1C(=O)O [Example 79, 5-{6-Chloro-5-[4-(2H-tetrazol-5-yl)-phenylethynyl]-1H-benzimidazol-2-yloxy}-2-methyl-benzoic acid]	> 80
COc1cc(C(=O)O)ccc1C#Cc1cc2nc(Oc3ccc(C)c(C(=O)O)c3)[nH]c2cc1Cl [Example 127, 5-({5-[(4-carboxy-2-methoxyphenyl)ethynyl]-6-chloro-1H benzimidazol-2-yl}oxy)-2-methylbenzoic acid]	> 80
Cc1ccc(Oc2nc3cc(C#Cc4cccc(C(=O)O)c4)c(Cl)cc3[nH]2)cc1C(=O)O [Example 126, 5-[5-(3-Carboxy-phenylethynyl)-6-chloro-1H-benzoimidazol-2-yloxy]-2-methyl-benzoic acid]	> 80
Cc1ccc(Oc2nc3cc(-c4ccc5c(ccc(=O)n5C)c4)c(Cl)cc3[nH]2)cc1C(=O)O [Example 234, 5-[6-Chloro-5-(1-methyl-2-oxo-1,2-dihydro-quinolin-6-yl)-1H-benzoimidazol-2-yloxy]-2-methyl-benzoic acid]	> 80
Cc1nc(-c2ccc(C#Cc3cc4nc(Oc5ccc(C)c(C(=O)O)c5)[nH]c4cc3Cl)cc2)no1 [Example 80, 5-{6-Chloro-5-[4-(5-methyl-[1,2,4]oxadiazol-3-yl)-phenylethynyl]-1H-benzoicmidazol-2-yloxy}-2-methyl-benzoic acid]	> 80
Cc1ccnc(-c2cc3nc(Oc4ccc(C)c(C(=O)O)c4)[nH]c3cc2Cl)c1 [Example 335, 2-(3-carboxy-4-methylphenoxy)-6-chloro-5-(4-methylpyridin-2-yl)-1H-3,1-benzimidazol-3-ium formate]	> 80
Cc1ccc(Oc2nc3cc(-c4ccc(C5CC5)c(N(C)C)c4)c(Cl)cc3[nH]2)cc1C(=O)O [Example 267, 5-[6-Chloro-5-(4-cyclopropyl-3-dimethylamino-phenyl)-1H-benzoimidazol-2-yloxy]-2-methyl-benzoic acid]	> 80
NC(C(=O)O)c1ccc(Oc2nc3cc(-c4ccc(-c5ccccc5)cc4)c(Cl)cc3[nH]2)cc1 (stereo not drawn) [Example 18, Amino-[4-(5-biphenyl-4-yl-6-chloro-1H-benzoimidazol-2-yloxy)-phenyl]-acetic acid]	> 80
Cc1ccc(Oc2nc3cc(-c4cccc5ncccc45)c(Cl)cc3[nH]2)cc1C(=O)O [Example 333, 2-(3-carboxy-4-methylphenoxy)-6-chloro-5-quinolin-5-yl-1H-3,1-benzimidazol-3-ium formate]	> 80
Cc1ccc(Oc2nc3cc(-c4ccc(C(C)O)cc4)c(Cl)cc3[nH]2)cc1C(=O)O (stereo not drawn) [Example 156, 5-{6-Chloro-5-[4-(1-hydroxy-ethyl)-phenyl]-1H-benzoimidazol-2-yloxy}-2-methyl-benzoic acid]	> 80
COc1ccc(C#Cc2cc3nc(Oc4ccc(C)c(C(=O)O)c4)[nH]c3cc2Cl)cc1 [Example 121, 5-[6-Chloro-5-(4-methoxy-phenylethynyl)-1H-benzoimidazol-2-yloxy]-2-methyl-benzoic acid]	> 80

SMILES	Emax [%]
Cc1ccc(Oc2nc3cc(C#Cc4ccc(C(F)(F)F)cc4)c(Cl)cc3[nH]2)cc1C(=O)O [Example 93, 5-[6-Chloro-5-(4-trifluoromethyl-phenylethynyl)-1H-benzoimidazol-2-yloxy]-2-methyl benzoic acid]	> 80
Cc1ccc(Oc2nc3cc(-c4ccc5c(ccn5CCO)c4)c(Cl)cc3[nH]2)cc1C(=O)O [Example 263, 5-({6-chloro-5-[1-(2-hydroxyethyl)-1H-indol-5-yl]-1H-benzimidazol-2-yl}oxy)-2-methylbenzoic acid]	> 80
O=C(O)C1(c2ccc(Oc3nc4cc(-c5ccc(-c6ccccc6)cc5)c(Cl)cc4[nH]3)cc2)CC1 [Example 7, 1-[4-(5-Biphenyl-4-yl-6-chloro-1H-benzoimidazol-2-yloxy)-phenyl]-cyclopropanecarboxylic acid]	> 80
Cc1ccc(Oc2nc3cc(C#Cc4ccc(-c5cn[nH]c5)cc4)c(Cl)cc3[nH]2)cc1C(=O)O [Example 82, 5-{6-Chloro-5-[4-(1H-pyrazol-4-yl)-phenylethynyl]-1H-benzoimidazol-2-yloxy}-2-methyl-benzoic acid]	> 80
Cc1cccc(C#Cc2cc3nc(Oc4ccc(C)c(C(=O)O)c4)[nH]c3cc2Cl)c1 [Example 97, 5-(6-Chloro-5-m-tolylethynyl-1H-benzoimidazol-2-yloxy)-2-methyl-benzoic acid]	> 80
O=C(O)Cc1cc(O)cc(Oc2nc3cc(-c4ccc(-c5ccccc5)cc4)c(Cl)cc3[nH]2)c1 [Example 21, [3-(5-Biphenyl-4-yl-6-chloro-1H-benzoimidazol-2-yloxy)-5-hydroxy-phenyl]-acetic acid]	> 80
COC(=O)c1cc(Oc2nc3cc(-c4ccc(-c5ccccc5Cl)cc4)c(Cl)cc3[nH]2)ccc1C [Example 196, Methyl 5-{[6-chloro-5-(2′-chlorobiphenyl-4-yl)-1H-benzimidazol-2-yl]oxy}-2-methylbenzoate]	> 80
Cc1ccc(Oc2nc3cc(-c4ccc(C(C)C)c5[nH]ccc45)c(Cl)cc3[nH]2)cc1C(=O)O [Example 273, 5-[6-Chloro-5-(7-isopropyl-1H-indol-4-yl)-1H-benzoimidazol-2-yloxy]-2-methyl-benzoic acid]	> 80
Cc1ccc(Oc2nc3cc(-c4ccc5c(c4)CCN5)c(Cl)cc3[nH]2)cc1C(=O)O [Example 285, 5-[6-Chloro-5-(2,3-dihydro-1H-indol-5-yl)-1H-benzoimidazol-2-yloxy]-2-methyl-benzoic acid]	> 80
COC(=O)c1cc(Oc2nc3cc(C#CC4(O)CCCC4)c(Cl)cc3[nH]2)ccc1C [Example 137, 5-[6-Chloro-5-(1-hydroxy-cyclopentylethynyl)-1H-benzoimidazol-2-yloxy]-2-methyl-benzoic acid methyl ester]	> 80
Cc1ccc(Oc2nc3cc(-c4ccc(-c5cccc(F)c5)cc4)c(Cl)cc3[nH]2)cc1C(=O)O [Example 185, 5-{[6-chloro-5-(3′-fluorobiphenyl-4-yl)-1H-benzimidazol-2-yl]oxy}-2-methylbenzoic acid]	> 80
Cc1ccc(Oc2nc3cc(-c4ccc(N5CCN(C(=O)OC(C)(C)C)CC5)nc4)c(Cl)cc3[nH]2)cc1C(=O)O [Example 175, 4-{5-[2-(3-Carboxy-4-methyl-phenoxy)-6-chloro-1H-benzoimidazol-5-yl]-pyridin-2-yl}-piperazine-1-carboxylic acid tert-butyl ester]	> 80
Cc1ccc(Oc2nc3cc(-c4ccc(-c5ccc(F)cc5)cc4)c(Cl)cc3[nH]2)cc1C(=O)O [Example 105, 5-[6-Chloro-5-(4′-fluoro-biphenyl-4-yl)-1H-benzoimidazol-2-yloxy]-2-methyl-benzoic acid]	> 80
O=C(O)c1cccc(Oc2nc3cc(-c4ccc(-c5ccccc5)cc4)c(Cl)cc3[nH]2)n1 [Example 214, 6-(5-Biphenyl-4-yl-6-chloro-1H-benzoimidazol-2-yloxy)-pyridine-2-carboxylic acid]	> 80
O=C(O)c1ccc(Cl)c(Oc2nc3cc(-c4ccc(-c5ccccc5)cc4)c(Cl)cc3[nH]2)c1 [Example 210, 3-(5-Biphenyl-4-yl-6-chloro-1H-benzoimidazol-2-yloxy)-4-chloro-benzoic acid]	> 80
Cc1ccc(Oc2nc3cc(C#Cc4ccc(-c5cnco5)cc4)c(Cl)cc3[nH]2)cc1C(=O)O [Example 120, 5-[6-Chloro-5-(4-oxazol-5-yl-phenylethynyl)-1H-benzoimidazol-2-yloxy]-2-methyl-benzoic acid]	> 80
O=C1Cc2cc(Oc3nc4cc(-c5ccc(-c6ccccc6)cc5)c(Cl)cc4[nH]3)ccc2O1 [Example 16, 5-(5-Biphenyl-4-yl-6-chloro-1H-benzoimidazol-2-yloxy)-3H-benzofuran-2-one]	> 80

Same assay, conditions: recombinant human AMPK complex 1 (α1β1γ1); read-out: EC50

SMILES	EC50 [nM]
Cc1ccc(Oc2nc3cc(-c4ccc(-c5ccc(C(=O)O)cc5)cc4)c(F)cc3[nH]2)cc1C(=O)O [Example 184, 4′-[2-3-carboxy-4-methylphenoxy-6-fluoro-1H-benzimidazol-5-yl]biphenyl-4-carboxylic acid]	8
Cc1ccc(Oc2nc3cc(-c4ccc(C(C)(C)O)cc4)c(Cl)cc3[nH]2)cc1C(=O)O [Example 183, 5-({6-chloro-5-[4-(1-hydroxy-1-methylethyl)phenyl]-1H-benzimidazol-2-yl}oxy)-2-methylbenzoic acid]	16
